Measured values published in patent US5563163A, “2-saccharinylmethyl heterocyclic carboxylates useful as proteolytic enzyme inhibitors and compositions and method of use thereof” (Sterling Winthrop, Inc., priority 1995, dated 1996).
Structures can show the parent of a compound that is named as a salt.

Biological target: T1, human leukocyte elastase (HLE) (Homo sapiens, UniProt P08246)
T1 sequence (P08246 30-267): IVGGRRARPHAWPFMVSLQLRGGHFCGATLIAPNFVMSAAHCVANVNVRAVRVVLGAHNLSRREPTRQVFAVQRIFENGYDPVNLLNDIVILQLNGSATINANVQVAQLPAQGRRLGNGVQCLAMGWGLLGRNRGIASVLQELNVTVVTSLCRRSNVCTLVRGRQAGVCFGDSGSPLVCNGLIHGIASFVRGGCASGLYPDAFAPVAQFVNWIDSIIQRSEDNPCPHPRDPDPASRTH
Assay: Inhibition of human leukocyte elastase (HLE): rate of inactivation kon and inhibition constant Ki* (= koff/kon)
Format: biochemical
Settings: for kinact/KI: "Kon × 10^-3": value is Kon multiplied by 10^-3; for Ki: Ki* calculated as koff/kon, not a truly reversible Ki
Description: Measurement of the inhibition constant, Ki, of a HLE-inhibitor complex has been described for "truly reversible inhibition constants" usually concerning competitive inhibitors. [Cha, Biochem. Pharmacol., 24, 2177-2185 (1975)]. […] Thus, instead of measuring a Ki, a Ki * is calculated which is defined as the ratio of the koff /kon, the rate of reactivation of the enzyme to the rate of inactivation of the enzyme. The values of koff and kon are measured and Ki * is then calculated. The rate of inactivation, kon, of enzymatic activity was determined for the compounds tested by measuring the enzyme activity of an aliquot of the respective enzyme as a function of time after addition of the test compound. […] The rate of inactivation is then equal to [formula] where [I] is the concentration of the inhibiting compound. The reactivation constant, koff, is similarly determined, and the inhibition constant, Ki *, is then calculated as Ki *=koff /kon The values obtained for kon and Ki * for specific substituted saccharin derivatives are shown in TABLE 3, the compounds being identified by the Example numbers above where their preparations are described.

## O=C(OCN1C(=O)c2ccccc2S1(=O)=O)c1ccncc1 [Example 1, 2-saccharinylmethyl pyridine-4-carboxylate]
  kinact/KI: 1200 M⁻¹ s⁻¹
  Ki: 40 nM

## O=C(OCN1C(=O)c2ccccc2S1(=O)=O)c1c(Cl)cncc1Cl [Example 2, 2-saccharinylmethyl 3,5-dichloropyridine-4-carboxylate]
  kinact/KI: 11000 M⁻¹ s⁻¹
  Ki: 10 nM

## CC(C)c1cccc2c1C(=O)N(COC(=O)c1c(Cl)cnc(OCCN3CCOCC3)c1Cl)S2(=O)=O [Example 3, 4-(isopropyl]-2-saccharinylmethyl 3.5-dichloro-2-[2-(4-morpholinyl)ethoxy]pyridine-4-carboxylate hydrochloride]
  kinact/KI: 1.5e+06 M⁻¹ s⁻¹
  Ki: 0.015 nM

## CC(C)c1cccc2c1C(=O)N(COC(=O)c1c(Cl)cncc1Cl)S2(=O)=O [Example 4, 4-isopropyl-2-saccharinylmethyl 3,5-dichloro-pyridine-4-carboxylate hydrochloride]
  kinact/KI: 2.3e+06 M⁻¹ s⁻¹

## COc1cc(C(C)C)c2c(c1)S(=O)(=O)N(COC(=O)c1c(Cl)cnc(OCCN(C)C)c1Cl)C2=O [Example 5, 4-isopropyl-6-methoxy-2-saccharinylmethyl 3,5-dichloro-2-[2-(dimethylamino)ethoxy]pyridine-4-carboxylate]
  kinact/KI: 455000 M⁻¹ s⁻¹
  Ki: 0.022 nM

## COc1cc(C(C)C)c2c(c1)S(=O)(=O)N(COC(=O)c1ccsc1)C2=O [Example 6, 4-isopropyl-6-methoxy-2-saccharinylmethyl thiophene-3-carboxylate]
  kinact/KI: 47600 M⁻¹ s⁻¹
  Ki: 0.21 nM

## COc1cc(C(C)C)c2c(c1)S(=O)(=O)N(COC(=O)c1sccc1C)C2=O [Example 7, 4-isopropyl-6-methoxy-2-saccharinylmethyl 3-methylthiophene-2-carboxylate]
  kinact/KI: 625000 M⁻¹ s⁻¹
  Ki: 0.016 nM

## COc1cc(C(C)C)c2c(c1)S(=O)(=O)N(COC(=O)c1cccs1)C2=O [Example 8, 4-isopropyl-6-methoxy-2-saccharinylmethyl thiophene-2-carboxylate]
  kinact/KI: 100000 M⁻¹ s⁻¹
  Ki: 0.1 nM

## COc1cc(C(C)C)c2c(c1)S(=O)(=O)N(COC(=O)c1sccc1Cl)C2=O [Example 9, 4-isopropyl-6-methoxy-2-saccharinylmethyl 3-chlorothiophene-2-carboxylate]
  kinact/KI: 131000 M⁻¹ s⁻¹
  Ki: 0.076 nM

## COc1cc(C(C)C)c2c(c1)S(=O)(=O)N(COC(=O)c1cc(C)no1)C2=O [Example 10, 4-isopropyl-6-methoxy-2-saccharinylmethyl 3-methylisoxazole-5-carboxylate]
  kinact/KI: 63000 M⁻¹ s⁻¹
  Ki: 0.16 nM

## COc1cc(C(C)C)c2c(c1)S(=O)(=O)N(COC(=O)C1CCC(=O)N1)C2=O (centres unmarked) [Example 11, 4-isopropyl-6-methoxy-2-saccharinylmethyl-2-pyrrolidine-5-carboxylate]
  kinact/KI: 50000 M⁻¹ s⁻¹
  Ki: 0.2 nM

## COc1cc(C(C)C)c2c(c1)S(=O)(=O)N(COC(=O)c1c(C)noc1C)C2=O [Example 12, 4-isopropyl-6-methoxy-2-saccharinylmethyl 3,5-dimethylisoxazole-4-carboxylate]
  kinact/KI: 28000 M⁻¹ s⁻¹
  Ki: 0.36 nM

## COc1cc(C(C)C)c2c(c1)S(=O)(=O)N(COC(=O)c1c(C)nn(-c3ccccc3)c1C)C2=O [Example 13, 4-isopropyl.-6-methoxy-2-saccharinylmethyl 3,5-dimethyl-1-phenylpyrazole-4-carboxylate]
  kinact/KI: 9000 M⁻¹ s⁻¹
  Ki: 1.1 nM

## COc1cc(C(C)C)c2c(c1)S(=O)(=O)N(COC(=O)c1c(C)ccnc1C)C2=O [Example 14, 4-isopropyl-6-methoxy-2-saccharinylmethyl 2,4-dimethylpyridine-3 carboxylate]
  kinact/KI: 500000 M⁻¹ s⁻¹
  Ki: 0.02 nM

## COc1cc(C(C)C)c2c(c1)S(=O)(=O)N(COC(=O)c1c(C)c3cc(Cl)ccc3n1C)C2=O [Example 15, 4-isopropyl-6-methoxy-2-saccharinylmethyl 1,3-dimethyl-5-chloro-indole-2-carboxylate]
  kinact/KI: 6000 M⁻¹ s⁻¹
  Ki: 1.5 nM
